Read-outs that look alike come from different tables or passages of the source. Each block holds one molecule with its values, some of them ahead of it.
Assays:
M2 macrophages [1] = experiment: Anti-cell viability screening: reduction of M2 macrophage cell viability (Percentage Relative Cell Viability versus Log Molar Concentration); assay type: cell-based
Protocol: Assays were conducted in a 96-well black solid-bottom plate with a final assay volume of 100 μL.

M2 macrophages [2] = experiment: Cancer cell phagocytosis by M1 and M2 macrophages, relative quantitative fluorescence; assay type: cell-based; settings: M2 versus M1 macrophages
Excerpt: FIGS. 14A to 14B illustrate this selectivity towards M2 macrophages.

[3] = test system: M2 polarized macrophages with intact CD206 (wild type) versus isogenic M2 polarized macrophages lacking the CD206 receptor; experiment: Cell viability in M2 polarized macrophages with intact CD206 versus isogenic macrophages lacking CD206; assay type: cell-based
murine M2 macrophages = experiment: M1 markers in murine M2 macrophages by quantitative flow cytometry; assay type: cell-based; settings: 20 μM for 2 hours
[4] = Pharmacokinetics (PK) profile, plasma concentration versus time; assay type: in vivo
[5] = target: T1, recombinant human CD206 protein (UniProt ID P22897-1) (Homo sapiens, UniProt P22897); experiment: Electron microscopy of recombinant CD206 incubated with compound, particles scored closed versus open; assay type: binding; settings: 30 minutes at 1 μM
T1 sequence (P22897 19-1456): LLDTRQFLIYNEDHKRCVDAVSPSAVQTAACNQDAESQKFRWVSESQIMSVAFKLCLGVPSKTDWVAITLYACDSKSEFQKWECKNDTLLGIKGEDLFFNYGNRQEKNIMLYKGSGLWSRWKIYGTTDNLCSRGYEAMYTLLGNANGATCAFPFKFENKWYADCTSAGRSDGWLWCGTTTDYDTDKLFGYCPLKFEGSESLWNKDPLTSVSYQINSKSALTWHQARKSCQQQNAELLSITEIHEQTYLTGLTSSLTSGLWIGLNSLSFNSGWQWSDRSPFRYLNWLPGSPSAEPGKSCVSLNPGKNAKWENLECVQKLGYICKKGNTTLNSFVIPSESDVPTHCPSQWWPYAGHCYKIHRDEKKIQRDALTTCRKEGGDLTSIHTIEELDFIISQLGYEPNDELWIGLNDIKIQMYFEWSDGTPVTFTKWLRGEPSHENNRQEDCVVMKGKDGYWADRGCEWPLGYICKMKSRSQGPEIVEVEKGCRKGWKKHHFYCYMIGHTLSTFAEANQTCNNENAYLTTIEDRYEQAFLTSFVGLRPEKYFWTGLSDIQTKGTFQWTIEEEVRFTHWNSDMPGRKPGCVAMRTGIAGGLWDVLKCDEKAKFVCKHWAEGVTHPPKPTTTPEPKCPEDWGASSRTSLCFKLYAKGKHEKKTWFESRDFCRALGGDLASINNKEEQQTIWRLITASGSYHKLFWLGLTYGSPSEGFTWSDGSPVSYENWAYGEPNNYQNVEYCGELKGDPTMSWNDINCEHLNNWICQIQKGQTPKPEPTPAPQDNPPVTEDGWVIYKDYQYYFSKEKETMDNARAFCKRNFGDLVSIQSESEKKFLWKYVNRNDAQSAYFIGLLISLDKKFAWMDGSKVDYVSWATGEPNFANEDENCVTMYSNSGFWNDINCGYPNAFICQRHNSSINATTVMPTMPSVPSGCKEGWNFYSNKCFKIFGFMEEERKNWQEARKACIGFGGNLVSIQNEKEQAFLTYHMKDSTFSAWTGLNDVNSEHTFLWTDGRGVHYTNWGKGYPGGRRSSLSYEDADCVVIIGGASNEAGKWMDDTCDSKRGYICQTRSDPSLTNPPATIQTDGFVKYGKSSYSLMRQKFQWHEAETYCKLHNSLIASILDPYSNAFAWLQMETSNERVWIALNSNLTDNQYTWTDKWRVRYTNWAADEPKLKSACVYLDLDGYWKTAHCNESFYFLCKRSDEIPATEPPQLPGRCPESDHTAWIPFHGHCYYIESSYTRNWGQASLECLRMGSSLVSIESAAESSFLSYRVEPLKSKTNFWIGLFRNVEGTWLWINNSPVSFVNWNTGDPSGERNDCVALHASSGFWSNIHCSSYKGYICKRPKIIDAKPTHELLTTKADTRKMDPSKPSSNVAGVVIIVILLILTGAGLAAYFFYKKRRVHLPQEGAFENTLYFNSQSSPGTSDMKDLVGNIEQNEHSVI
Protocol: FIGS. 11A and 11B illustrate conformational change on CD206 when incubated with Compound 1.

[6] = test system: Kras(G12D)/Trp53(R172H)/Pdx-1-Cre (KPC) mice (murine pancreatic cancer model); experiment: In vivo testing in transgenic KPC mice, tumor growth; settings: compared to vehicle
Excerpt: Tumor growth was suppressed during in vivo testing of Compound 1 in fully immune-competent transgenic Kras(G12D)/Trp53(R172H)/Pdx-1-Cre (KPC) mice (murine pancreatic cancer model) compared to vehicle as shown in FIG. 3B. This point was further illustrated in FIGS. 3A and 3C where comparison of tumor volume for mice treated with Compound-1 and untreated mice (vehicle) is shown.

KPC tumors = experiment: Quantitative flow cytometry of autochthonous KPC tumors (intratumoral immune landscape); assay type: in vivo, mice
[7] = test system: KPC allograft tumors grown in C57BL/6 mice; experiment: M2 macrophages adaptive transfer study in KPC allograft model; assay type: in vivo; settings: intratumoral injections 3 times a week, compared to vehicle
[8] = test system: murine M1 macrophages and M2 macrophages; experiment: Induction of phagocytosis, autophagy and apoptosis in bone marrow derived macrophages (BMDM), M1 versus M2, relative fluorescence; assay type: cell-based
Excerpt: (§1) Induction of phagocytosis, autophagy, and apoptosis was studied in two in vitro models using M1 and M2 macrophages. […] FIGS. 12A to 12E illustrate this selectivity. […] FIGS. 13A to 13C illustrate this selectivity

[9] = test system: RAW264.7 macrophages polarized into M1 and M2; experiment: Induction of phagocytosis, autophagy and apoptosis in RAW264.7 macrophages polarized into M1 and M2; assay type: cell-based, murine
Excerpt: as §1

[10] = test system: human CD206^high M2 macrophages; experiment: Cell viability assay of human macrophages; assay type: cell-based; settings: derived from healthy volunteers, compared to M1-like macrophages
Excerpt: (§2) Similar selectivity is observed in dendritic cell DC2.4 viability (FIG. 9B), fibroblast HTT viability (FIG. 9C), RAW cell viability (FIG. 9D), and KPC viability (FIG. 9E).

[11] = test system: CD206 negative control cell lines (DC2.4, fibroblast HTT, non-polarized RAW264.7, KPC cancer cells); experiment: Cell viability in a panel of CD206 negative control cell lines; assay type: cell-based
Excerpt: as §2

[12] = Macrophage, figure legends and text, read-out: IC50, macrophage activity (Percentage Relative Cell Viability versus Log Molar Concentration) (converted)
[13] = Macrophage, Table 2, read-out: IC50
[14] = CD11b+F4/80+Gr-1 negative cells

SMILES: NC(=O)c1ccc(-c2ncc3cnc(-c4cccc(F)c4)cn23)cc1 [Compound 8, 4-(6-(3-fluorophenyl)imidazo[1,5-a]pyrazin-3-yl)benzamide]
- IC50 (M2 macrophages [1]; [12]): 0.45 µM

SMILES: O=C(NCCCO)c1ccc(-c2ncc3cnc(-c4cccc(F)c4)cn23)cc1 [Compound 9, 4-(6-(3-fluorophenyl)imidazo[1,5-a]pyrazin-3-yl)-N-(3-hydroxypropyl)benzamide]
- IC50 (M2 macrophages [1]; [12]): 0.73 µM

SMILES: CC(=O)NCCNC(=O)c1ccc(-c2ncc3cnc(-c4cccc(F)c4)cn23)cc1 [Compound 10, N-(2-acetamidoethyl)-4-(6-(3-fluorophenyl)imidazo[1,5-a]pyrazin-3-yl)benzamide]
- IC50 (M2 macrophages [1]; figure legends and text, read-out: IC50, macrophage activity (Percentage Relative Cell Viability versus Log Molar Concentration) (converted)): 5.45 µM

SMILES: O=C(NCCCN1CCCC1=O)c1ccc(-c2ncc3cnc(-c4ccccc4)cn23)cc1 [Compound 28, N-(3-(2-oxopyrrolidin-1-yl)propyl)-4-(6-phenylimidazo[1,5-a]pyrazin-3-yl)benzamide]
- cancer cell phagocytosis (M2 macrophages [2]): increases cancer cell phagocytosis in M2 but not in M1 macrophages

SMILES: CN(C)CCNC(=O)c1ccc(-c2ncc3cnc(-c4ccccc4)cn23)cc1 [Compound 7, N-(2-(dimethylamino)ethyl)-4-(6-phenylimidazo[1,5-a]pyrazin-3-yl)benzamide]
- IC50 (M2 macrophages [1]; [12]): 3.13 µM

SMILES: CC(=O)Nc1ccc(NC(=O)c2ccc(-c3ncc4cnc(-c5ccccc5)cn34)cc2)cc1 [Compound 5, N-(4-acetamidophenyl)-4-(6-phenylimidazo[1,5-a]pyrazin-3-yl)benzamide]
- IC50 (M2 macrophages [1]; [12]): 7.36 µM

SMILES: O=C(NCCN1CCOCC1)c1ccc(-c2ncc3cnc(-c4ccccc4)cn23)cc1 [Compound 4, N-(2-Morpholinoethyl)-4-(6-phenylimidazo[1,5-a]pyrazin-3-yl)benzamide]
- IC50 (M2 macrophages [1]; [12]): 8.95 µM

SMILES: CC(=O)c1c(C)oc2ccc(N(C(=O)Oc3ccccc3)[S+](=O)(O)c3ccccc3)cc12 [Compound 3]
- IC50 (M2 macrophages [1]; [13]): 3.88 µM
- M2 Selectivity (M2 macrophages [1]; Table 2): Yes
- CD206 dependence of macrophage activity [3]: CD206 dependent

SMILES: O=C(c1cc2ccccc2[nH]1)N1CCc2c(n(Cc3cccnc3)n(CCc3ccccc3)c2=O)C1 [Compound 2]
- IC50 (M2 macrophages [1]; [13]): 4.59 µM
- M2 Selectivity (M2 macrophages [1]; Table 2): Yes
- CD206 dependence of macrophage activity [3]: CD206 dependent
- M1 markers (percent positive cell fractions) (murine M2 macrophages): induction of M1 markers in M2 macrophages

- concentration at 0.157 h ([4]; IP (intraperitoneal), 20 mg/kg): 7890 nM
- concentration at 0.5 h ([4]; IP (intraperitoneal), 20 mg/kg): 7600 nM
- concentration at 1 h ([4]; IP (intraperitoneal), 20 mg/kg): 11100 nM
- concentration at 1.5 h ([4]; IP (intraperitoneal), 20 mg/kg): 12800 nM
- concentration at 2 h ([4]; IP (intraperitoneal), 20 mg/kg): 5840 nM
- concentration at 4 h ([4]; IP (intraperitoneal), 20 mg/kg): 3020 nM
- concentration at 7 h ([4]; IP (intraperitoneal), 20 mg/kg, 7.0 h): 540 nM
- concentration at 0.157 h ([4]; PO (Per Os, oral), 30 mg/kg): 11 nM
- concentration at 0.5 h ([4]; PO (Per Os, oral), 30 mg/kg): 16 nM
- concentration at 1 h ([4]; PO (Per Os, oral), 30 mg/kg): 23 nM
- concentration at 1.5 h ([4]; PO (Per Os, oral), 30 mg/kg): 190 nM
- concentration at 2 h ([4]; PO (Per Os, oral), 30 mg/kg): 163 nM
- concentration at 4 h ([4]; PO (Per Os, oral), 30 mg/kg): 11 nM
- PK profile ([4]; liver, and pancreas, oral and IP injection): excellent PK profile
- CD206 particles in a closed state [5]: 48%
- CD206 particles in open state [5]: 52%
SMILES: O=C(NCCc1cnc[nH]1)c1ccc(-c2ncc3cnc(-c4ccccc4)cn23)cc1 [Compound 1, N-(2-(1H-imidazol-5-yl)ethyl)-4-(6-phenylimidazo[1,5-a]pyrazin-3-yl)benzamide]
- IC50 (M2 macrophages [1]; [13]): 2.86 µM
- IC50 (M2 macrophages [1]; [12]): 2.86 µM
- M2 Selectivity (M2 macrophages [1]; Table 2): Yes
- CD206 dependence of macrophage activity [3]: CD206 dependent
- binding to CD206 and conformation of the receptor [5]: binds to CD206 and induces a conformational switch of the receptor
- binding to CD206 and conformation of the receptor ([5]; listed as Example 38): induces the closed conformation of the CD206 receptor
- Tumor growth [6]: suppressed
- CD206 positive cells within tumor associated macrophage population (KPC tumors; [14]): reduction of CD206 positive cells
- Signal regulatory protein α (SIRPα) of tumor associated macrophages (KPC tumors; [14]): reduction of the innate checkpoint Signal regulatory protein α (SIRPα)
- CD206 macrophages in tumors (percent positive cell fractions of total cells) (KPC tumors; compared to vehicle): reduction of CD206 macrophages
- M2 to M1 macrophage shift in tumors (KPC tumors; compared to vehicle): shift from CD206^high M2 to CD86-positive M1 macrophages
- intratumoral CD8 cells (KPC tumors; compared to vehicle): increase in intratumoral CD8 cells
- M1 markers in intratumoral M1 and M2 macrophage populations (KPC tumors; treatment for three weeks in KPC mice, compared to vehicle): induction of M1 markers
- Tumor growth after intratumoral injection of pretreated M2 macrophages [7]: reduction of tumor
- selectivity to induce phagocytosis, autophagy, and apoptosis ([8]; BMDM in vitro model): excellent selectivity to induce phagocytosis, autophagy, and apoptosis in M2 but not in M1 macrophages
- induction of apoptosis ([8]; M1 versus M2): induces apoptosis in M2 but not in M1 macrophages
- induction of autophagy ([8]; M1 versus M2): induces autophagy in M2 but not in M1 macrophages
- induction of early phagocytosis ([8]; M1 versus M2): induces early phagocytosis in M2 but not in M1 macrophages
- induction of phagocytosis ([8]; M1 versus M2): induces phagocytosis in M2 but not in M1 macrophages
- induction of phagolysosome formation ([8]; M1 versus M2): induces phagolysosome formation in M2 but not in M1 macrophages
- dose response in induction of phagocytosis ([8]; murine M2 macrophages treated for 24 hours): full dose response
- selectivity to induce phagocytosis, autophagy, and apoptosis ([9]; RAW264.7 cell in vitro model): excellent selectivity to induce phagocytosis, autophagy, and apoptosis in M2 but not in M1 macrophages
- induction of apoptosis ([9]; compared to vehicle): induces apoptosis in M2 macrophages
- induction of autophagy ([9]; compared to vehicle): induces autophagy in M2 macrophages
- induction of phagocytosis ([9]; compared to vehicle): induces phagocytosis in M2 macrophages
- cancer cell phagocytosis (M2 macrophages [2]): increases cancer cell phagocytosis in M2 but not in M1 macrophages
- activity in human CD206^high M2 macrophages [10]: active
- selectivity versus CD206 negative control cell lines [11]: selective for the CD206^high M2 macrophages
- M1 markers (percent positive cell fractions) (murine M2 macrophages): induction of M1 markers in M2 macrophages

SMILES: O=C(NCCCn1ccnc1)c1ccc(-c2ncc3cnc(-c4ccccc4)cn23)cc1 [Compound 6, N-(3-(1H-imidazol-1-yl)propyl)-4-(6-phenylimidazo[1,5-a]pyrazin-3-yl)benzamide]
- IC50 (M2 macrophages [1]; [12]): 3.85 µM
